{"source": "patent US12678488B2", "about": "“Batch management method for improving farrowing rate or number of piglets born alive in swine” (priority 2024, dated 2026)", "system": "Landrace x Large White reserve sows", "test": "Heat detection: estrus rate and estrus time in gilts, different doses (Example 2)", "type": "in vivo, pigs", "text": "Landrace x Large White reserve sows, about 230 days old, were randomly divided into a batch farrowing with FTAI and batch farrowing with FTAI combined with different doses of 1-[bis(4-cyanophenyl)methyl]-1,2,4-triazole groups, and during the experiment, the experimental sows in each group were fed regularly and gained free access to water according to the requirements of feeding management in the farm.\nReferring to the dosage of 1-[bis(4-cyanophenyl)methyl]-1,2,4-triazole in clinical medicine and using standard weight-dosage conversion, the recommended dosage of 1-[bis(4-cyanophenyl)methyl]-1,2,4-triazole for sows was 50-150 μg/kg·BW/day, orally for consecutive 5 days, as derived by conversion. In addition, the applicant previously studied uniparous cows, and in the ovulation induction scheme, the reference dosage of 1-[bis(4-cyanophenyl)methyl]-1,2,4-triazole was 60-200 μg/kg·BW, administered in a single dose; furthermore, by means of conversion in conjunction with the dosage for model animals (mice) previously in the laboratory, various dosages were designed. The treatment methods of hormones and drugs for sows in each group were as follows: • batch farrowing with FTAI: the sows were fed with an altrenogest oral solution at 20 mg/animal at the same time every day, for 18 days; PMSG at 1000 IU/animal was injected intramuscularly 42 h after the last feeding with altrenogest, GnRH at 100 μg/animal was injected intramuscularly 80 h after the injection of PMSG, a first timed insemination was performed 24 h after the injection of GnRH, and a second timed insemination was performed 16 h after the first insemination.\n(§1) Treatment group 1: the hormone treatment and mating schemes for gilts were the same as FTAI. The difference lay in that PMSG at 1000 IU/gilt was injected intramuscularly 42 h after the last feeding with altrenogest, and 1-[bis(4-cyanophenyl)methyl]-1,2,4-triazole at 12 μg/kg·BW/day was administered orally 8 h after the injection of PMSG, for 1 day.\nas §1, with “2:” for “1:”, “2 days.” for “1 day.”\nas §1, with “3:” for “1:”, “20” for “12”\nas §1, with “4:” for “1:”, “sows” for “gilts”, “1-[bis (4-cyanophenyl)methyl]-1,2,4-triazole” for “1-[bis(4-cyanophenyl)methyl]-1,2,4-triazole”, “20” for “12”, “2 days.” for “1 day.”\nas §1, with “5:” for “1:”, “IU/animal” for “IU/gilt”, “20” for “12”, “3 days.” for “1 day.”\nas §1, with “6:” for “1:”, “IU/animal” for “IU/gilt”, “20” for “12”, “5 days.” for “1 day.”\nTreatment group 7: the hormone treatment and mating schemes for gilts were the same as FTAI. […]", "data": [{"molecule": "N#Cc1ccc(C(c2ccc(C#N)cc2)n2cncn2)cc1", "note": "[1-[bis(4-cyanophenyl)methyl]-1,2,4-triazole]", "values": [{"measurement": "Number of estrous animals at different times after stopping Altrenogest (day/animal)", "setting": "day 5.5, Example 2 Treatment group 5: 20 μg/kg·BW/day orally, 3 days, gilts", "value": 6, "unit": "animal"}, {"measurement": "Number of estrous animals at different times after stopping Altrenogest (day/animal)", "setting": "day 5.5, Example 2 Treatment group 6: 20 μg/kg·BW/day orally, 5 days, gilts", "value": 0, "unit": "animal"}, {"measurement": "Number of estrous animals at different times after stopping Altrenogest (day/animal)", "setting": "day 5.5, Example 2 Treatment group 7: 40 μg/kg·BW/day orally, 1 day, gilts", "value": 2, "unit": "animal"}, {"measurement": "Number of estrous animals at different times after stopping Altrenogest (day/animal)", "setting": "day 5.5, Example 2 Treatment group 8: 40 μg/kg·BW/day orally, 5 days, gilts", "value": 0, "unit": "animal"}, {"measurement": "Number of estrous animals at different times after stopping Altrenogest (day/animal)", "setting": "day 6, Example 2 Treatment group 1: 12 μg/kg·BW/day orally, 1 day, gilts", "value": 8, "unit": "animal"}, {"measurement": "Number of estrous animals at different times after stopping Altrenogest (day/animal)", "setting": "day 6, Example 2 Treatment group 2: 12 μg/kg·BW/day orally, 2 days, gilts", "value": 7, "unit": "animal"}, {"measurement": "Number of estrous animals at different times after stopping Altrenogest (day/animal)", "setting": "day 6, Example 2 Treatment group 3: 20 μg/kg·BW/day orally, 1 day, gilts", "value": 7, "unit": "animal"}, {"measurement": "Number of estrous animals at different times after stopping Altrenogest (day/animal)", "setting": "day 6, Example 2 Treatment group 4: 20 μg/kg·BW/day orally, 2 days, gilts", "value": 6, "unit": "animal"}, {"measurement": "Number of estrous animals at different times after stopping Altrenogest (day/animal)", "setting": "day 6, Example 2 Treatment group 5: 20 μg/kg·BW/day orally, 3 days, gilts", "value": 7, "unit": "animal"}, {"measurement": "Number of estrous animals at different times after stopping Altrenogest (day/animal)", "setting": "day 6, Example 2 Treatment group 6: 20 μg/kg·BW/day orally, 5 days, gilts", "value": 5, "unit": "animal"}, {"measurement": "Number of estrous animals at different times after stopping Altrenogest (day/animal)", "setting": "day 6, Example 2 Treatment group 7: 40 μg/kg·BW/day orally, 1 day, gilts", "value": 2, "unit": "animal"}, {"measurement": "Number of estrous animals at different times after stopping Altrenogest (day/animal)", "setting": "day 6, Example 2 Treatment group 8: 40 μg/kg·BW/day orally, 5 days, gilts", "value": 2, "unit": "animal"}, {"measurement": "Number of estrous animals at different times after stopping Altrenogest (day/animal)", "setting": "day 6.5, Example 2 Treatment group 1: 12 μg/kg·BW/day orally, 1 day, gilts", "value": 4, "unit": "animal"}, {"measurement": "Number of estrous animals at different times after stopping Altrenogest (day/animal)", "setting": "day 6.5, Example 2 Treatment group 2: 12 μg/kg·BW/day orally, 2 days, gilts", "value": 3, "unit": "animal"}, {"measurement": "Number of estrous animals at different times after stopping Altrenogest (day/animal)", "setting": "day 6.5, Example 2 Treatment group 3: 20 μg/kg·BW/day orally, 1 day, gilts", "value": 5, "unit": "animal"}, {"measurement": "Number of estrous animals at different times after stopping Altrenogest (day/animal)", "setting": "day 6.5, Example 2 Treatment group 4: 20 μg/kg·BW/day orally, 2 days, gilts", "value": 4, "unit": "animal"}, {"measurement": "Number of estrous animals at different times after stopping Altrenogest (day/animal)", "setting": "day 6.5, Example 2 Treatment group 5: 20 μg/kg·BW/day orally, 3 days, gilts", "value": 3, "unit": "animal"}, {"measurement": "Number of estrous animals at different times after stopping Altrenogest (day/animal)", "setting": "day 6.5, Example 2 Treatment group 6: 20 μg/kg·BW/day orally, 5 days, gilts", "value": 3, "unit": "animal"}, {"measurement": "Number of estrous animals at different times after stopping Altrenogest (day/animal)", "setting": "day 6.5, Example 2 Treatment group 7: 40 μg/kg·BW/day orally, 1 day, gilts", "value": 9, "unit": "animal"}, {"measurement": "Number of estrous animals at different times after stopping Altrenogest (day/animal)", "setting": "day 6.5, Example 2 Treatment group 8: 40 μg/kg·BW/day orally, 5 days, gilts", "value": 2, "unit": "animal"}, {"measurement": "Number of estrous animals at different times after stopping Altrenogest (day/animal)", "setting": "day 7, Example 2 Treatment group 1: 12 μg/kg·BW/day orally, 1 day, gilts", "value": 5, "unit": "animal"}, {"measurement": "Number of estrous animals at different times after stopping Altrenogest (day/animal)", "setting": "day 7, Example 2 Treatment group 2: 12 μg/kg·BW/day orally, 2 days, gilts", "value": 3, "unit": "animal"}, {"measurement": "Number of estrous animals at different times after stopping Altrenogest (day/animal)", "setting": "day 7, Example 2 Treatment group 3: 20 μg/kg·BW/day orally, 1 day, gilts", "value": 2, "unit": "animal"}, {"measurement": "Number of estrous animals at different times after stopping Altrenogest (day/animal)", "setting": "day 7, Example 2 Treatment group 4: 20 μg/kg·BW/day orally, 2 days, gilts", "value": 2, "unit": "animal"}, {"measurement": "Number of estrous animals at different times after stopping Altrenogest (day/animal)", "setting": "day 7, Example 2 Treatment group 5: 20 μg/kg·BW/day orally, 3 days, gilts", "value": 3, "unit": "animal"}, {"measurement": "Number of estrous animals at different times after stopping Altrenogest (day/animal)", "setting": "day 7, Example 2 Treatment group 6: 20 μg/kg·BW/day orally, 5 days, gilts", "value": 8, "unit": "animal"}, {"measurement": "Number of estrous animals at different times after stopping Altrenogest (day/animal)", "setting": "day 7, Example 2 Treatment group 7: 40 μg/kg·BW/day orally, 1 day, gilts", "value": 0, "unit": "animal"}, {"measurement": "Number of estrous animals at different times after stopping Altrenogest (day/animal)", "setting": "day 7, Example 2 Treatment group 8: 40 μg/kg·BW/day orally, 5 days, gilts", "value": 0, "unit": "animal"}, {"measurement": "Number of estrous animals at different times after stopping Altrenogest (day/animal)", "setting": "day 7.5, Example 2 Treatment group 1: 12 μg/kg·BW/day orally, 1 day, gilts", "value": 1, "unit": "animal"}, {"measurement": "Number of estrous animals at different times after stopping Altrenogest (day/animal)", "setting": "day 7.5, Example 2 Treatment group 2: 12 μg/kg·BW/day orally, 2 days, gilts", "value": 1, "unit": "animal"}, {"measurement": "Number of estrous animals at different times after stopping Altrenogest (day/animal)", "setting": "day 7.5, Example 2 Treatment group 3: 20 μg/kg·BW/day orally, 1 day, gilts", "value": 1, "unit": "animal"}, {"measurement": "Number of estrous animals at different times after stopping Altrenogest (day/animal)", "setting": "day 7.5, Example 2 Treatment group 4: 20 μg/kg·BW/day orally, 2 days, gilts", "value": 1, "unit": "animal"}, {"measurement": "Number of estrous animals at different times after stopping Altrenogest (day/animal)", "setting": "day 7.5, Example 2 Treatment group 5: 20 μg/kg·BW/day orally, 3 days, gilts", "value": 2, "unit": "animal"}, {"measurement": "Number of estrous animals at different times after stopping Altrenogest (day/animal)", "setting": "day 7.5, Example 2 Treatment group 6: 20 μg/kg·BW/day orally, 5 days, gilts", "value": 1, "unit": "animal"}, {"measurement": "Number of estrous animals at different times after stopping Altrenogest (day/animal)", "setting": "day 7.5, Example 2 Treatment group 7: 40 μg/kg·BW/day orally, 1 day, gilts", "value": 9, "unit": "animal"}, {"measurement": "Number of estrous animals at different times after stopping Altrenogest (day/animal)", "setting": "day 7.5, Example 2 Treatment group 8: 40 μg/kg·BW/day orally, 5 days, gilts", "value": 0, "unit": "animal"}, {"measurement": "Number of estrous animals at different times after stopping Altrenogest (day/animal)", "setting": "day 8, Example 2 Treatment group 1: 12 μg/kg·BW/day orally, 1 day, gilts", "value": 0, "unit": "animal"}, {"measurement": "Number of estrous animals at different times after stopping Altrenogest (day/animal)", "setting": "day 8, Example 2 Treatment group 2: 12 μg/kg·BW/day orally, 2 days, gilts", "value": 0, "unit": "animal"}, {"measurement": "Number of estrous animals at different times after stopping Altrenogest (day/animal)", "setting": "day 8, Example 2 Treatment group 3: 20 μg/kg·BW/day orally, 1 day, gilts", "value": 0, "unit": "animal"}, {"measurement": "Number of estrous animals at different times after stopping Altrenogest (day/animal)", "setting": "day 8, Example 2 Treatment group 4: 20 μg/kg·BW/day orally, 2 days, gilts", "value": 0, "unit": "animal"}, {"measurement": "Number of estrous animals at different times after stopping Altrenogest (day/animal)", "setting": "day 8, Example 2 Treatment group 5: 20 μg/kg·BW/day orally, 3 days, gilts", "value": 1, "unit": "animal"}, {"measurement": "Number of estrous animals at different times after stopping Altrenogest (day/animal)", "setting": "day 8, Example 2 Treatment group 6: 20 μg/kg·BW/day orally, 5 days, gilts", "value": 2, "unit": "animal"}, {"measurement": "Number of estrous animals at different times after stopping Altrenogest (day/animal)", "setting": "day 8, Example 2 Treatment group 7: 40 μg/kg·BW/day orally, 1 day, gilts", "value": 0, "unit": "animal"}, {"measurement": "Number of estrous animals at different times after stopping Altrenogest (day/animal)", "setting": "day 8, Example 2 Treatment group 8: 40 μg/kg·BW/day orally, 5 days, gilts", "value": 0, "unit": "animal"}, {"measurement": "estrus on the 8th day after altrenogest was stopped", "setting": "gilts, 80 and 160 μg/kg·BW/day for 5 consecutive days (treatment groups 9 and 10)", "value": "no estrus"}, {"measurement": "estrus rate", "setting": "gilts, high dose or multiple (5) low doses (treatment groups 6, 8, 9, and 10)", "value": "decreased estrus rate or even no estrus"}, {"measurement": "estrus rate", "setting": "gilts, low dose (treatment groups 1, 2, 3, 4, 5, and 7), compared with FTAI group", "value": "not significantly different"}, {"measurement": "estrus in sows", "setting": "high-dose", "value": "inhibited"}, {"measurement": "gilt estrus rate", "setting": "low-dose, batch farrowing with FTAI", "value": "no significant change"}]}]}
